Key:
[1] = molecular target: angiotensin converting enzyme (ACE) (Homo sapiens, UniProt P12821); assay: ACE inhibition in vitro (IC50); type: biochemical
Procedure: (§1) The ACE inhibitory activity of the compounds of the present invention is determined via in vitro tests using standard test procedures for ACE inhibition well known to those skilled in the art. Similarly, NEP inhibitory activity is determined via in vitro tests using standard test procedures for NEP inhibition well known to those skilled in the art.

[2] = tested on: angiotensin I (AI) challenge; assay: A1 Challenge Assay; type: in vivo, male Sprague-Dawley rats
[3] = molecular target: neutral endopeptidase (NEP, EC 3.4.24.11) (Homo sapiens, UniProt P08473); assay: NEP inhibition in vitro (IC50); type: biochemical
Procedure: as §1

Chain of angiotensin converting enzyme (ACE) (P12821 30-1306, species assumed): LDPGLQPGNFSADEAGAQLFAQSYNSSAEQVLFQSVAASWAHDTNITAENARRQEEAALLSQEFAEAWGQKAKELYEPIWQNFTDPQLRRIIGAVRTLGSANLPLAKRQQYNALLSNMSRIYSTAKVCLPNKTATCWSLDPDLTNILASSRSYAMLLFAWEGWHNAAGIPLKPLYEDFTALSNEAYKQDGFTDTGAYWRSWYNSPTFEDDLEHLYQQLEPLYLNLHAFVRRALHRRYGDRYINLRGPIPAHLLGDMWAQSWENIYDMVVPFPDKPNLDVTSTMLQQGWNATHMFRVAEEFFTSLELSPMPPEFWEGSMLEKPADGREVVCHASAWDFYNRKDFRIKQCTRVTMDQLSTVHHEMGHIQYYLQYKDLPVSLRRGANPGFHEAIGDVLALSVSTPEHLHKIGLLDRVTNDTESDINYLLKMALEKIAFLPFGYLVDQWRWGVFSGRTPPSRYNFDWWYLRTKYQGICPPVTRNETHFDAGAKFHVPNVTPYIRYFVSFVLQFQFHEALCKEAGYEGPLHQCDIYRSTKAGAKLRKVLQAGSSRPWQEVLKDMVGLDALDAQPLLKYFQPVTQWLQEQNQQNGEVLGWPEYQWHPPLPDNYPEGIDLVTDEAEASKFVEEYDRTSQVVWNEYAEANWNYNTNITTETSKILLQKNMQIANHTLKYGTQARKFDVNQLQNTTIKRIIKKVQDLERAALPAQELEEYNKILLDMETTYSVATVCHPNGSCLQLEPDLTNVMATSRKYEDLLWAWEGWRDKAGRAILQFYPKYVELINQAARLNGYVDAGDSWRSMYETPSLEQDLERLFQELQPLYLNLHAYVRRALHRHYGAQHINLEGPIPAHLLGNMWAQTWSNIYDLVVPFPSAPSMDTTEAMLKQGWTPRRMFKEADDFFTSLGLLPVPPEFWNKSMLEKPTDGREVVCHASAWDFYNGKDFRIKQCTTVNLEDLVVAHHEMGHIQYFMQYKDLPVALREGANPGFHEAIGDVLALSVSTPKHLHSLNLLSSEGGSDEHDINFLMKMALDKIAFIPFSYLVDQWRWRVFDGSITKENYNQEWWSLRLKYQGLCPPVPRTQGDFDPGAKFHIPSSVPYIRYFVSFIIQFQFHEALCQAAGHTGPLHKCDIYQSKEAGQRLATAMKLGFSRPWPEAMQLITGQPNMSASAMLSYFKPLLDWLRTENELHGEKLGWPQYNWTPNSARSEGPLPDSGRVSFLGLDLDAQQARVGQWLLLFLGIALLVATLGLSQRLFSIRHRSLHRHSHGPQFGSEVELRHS
Chain of neutral endopeptidase (NEP, EC 3.4.24.11) (P08473 whole entry, species assumed): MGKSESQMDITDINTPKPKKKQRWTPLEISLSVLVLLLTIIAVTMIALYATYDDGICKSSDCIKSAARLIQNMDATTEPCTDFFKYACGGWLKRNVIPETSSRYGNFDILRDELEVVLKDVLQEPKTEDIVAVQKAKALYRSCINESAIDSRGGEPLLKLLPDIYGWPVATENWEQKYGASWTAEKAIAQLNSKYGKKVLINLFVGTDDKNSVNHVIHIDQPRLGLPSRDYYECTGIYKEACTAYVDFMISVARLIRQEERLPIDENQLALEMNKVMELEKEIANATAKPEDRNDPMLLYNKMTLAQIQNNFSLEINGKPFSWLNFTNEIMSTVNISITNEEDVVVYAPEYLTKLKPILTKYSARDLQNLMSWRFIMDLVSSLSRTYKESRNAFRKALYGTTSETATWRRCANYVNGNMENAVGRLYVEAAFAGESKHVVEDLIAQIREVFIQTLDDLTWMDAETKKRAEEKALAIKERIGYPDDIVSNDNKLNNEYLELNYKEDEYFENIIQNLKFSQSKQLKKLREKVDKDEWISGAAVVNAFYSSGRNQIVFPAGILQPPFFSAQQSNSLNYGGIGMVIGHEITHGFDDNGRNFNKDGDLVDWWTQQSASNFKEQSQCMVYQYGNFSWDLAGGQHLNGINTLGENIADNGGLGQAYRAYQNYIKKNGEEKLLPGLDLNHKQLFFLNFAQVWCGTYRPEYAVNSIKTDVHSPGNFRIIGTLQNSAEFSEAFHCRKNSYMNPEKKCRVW

| SMILES | IC50 [1] [nM] | IC50 [3] [nM] | A1 Chall. (% inhibition) ([2]; dose 30 sc) [%] | A1 Chall. (% inhibition) ([2]; dose 10 sc) [%] |
| --- | --- | --- | --- | --- |
| CN(C)C(=O)N[C@@H](CCCCNC(=O)OCc1ccccc1)C(=O)NC[C@H](CC1(C(=O)N[C@@H](Cc2ccc(O)cc2)C(=O)O)CCCC1)C(=O)O [CbzNH C(O) (CH3)2 NH] | 450 | 2 | 88 |  |
| COC(=O)N[C@@H](CCCCNC(=O)OCc1ccccc1)C(=O)NC[C@H](CC1(C(=O)N[C@@H](Cc2ccc(O)cc2)C(=O)O)CCCC1)C(=O)O [CbzNH C(O) CH3 O] | 15 | 8 | 49 |  |
| O=C(NCCCC[C@H](NC(=O)N1CCOCC1)C(=O)NC[C@H](CC1(C(=O)N[C@@H](Cc2ccc(O)cc2)C(=O)O)CCCC1)C(=O)O)OCc1ccccc1 [CbzNH C(O) drawing 38] | 2 | 2 |  |  |
| CN(C)C(=O)N[C@@H](CCCCN)C(=O)NC[C@H](CC1(C(=O)N[C@@H](Cc2ccc(O)cc2)C(=O)O)CCCC1)C(=O)O [NH2 C(O) (CH3)2 NH] | 15 | 1 |  |  |
| COC(=O)N[C@@H](CCCCN)C(=O)NC[C@H](CC1(C(=O)N[C@@H](Cc2ccc(O)cc2)C(=O)O)CCCC1)C(=O)O [NH2 C(O) CH3 O] | 60 | 33 | 92 |  |
| CS(=O)(=O)N(CCCN)CC(=O)NC[C@H](CC1(C(=O)N[C@@H](Cc2ccc(O)cc2)C(=O)O)CCCC1)C(=O)O [NH2 SO2 CH3] | 6 | 1 | 81 |  |

The remaining compounds from weak to strong by IC50 [3], led by results:

| IC50 [1] [nM] | IC50 [3] [nM] | SMILES | A1 Chall. (% inhibition) ([2]; dose 30 sc) [%] | A1 Chall. (% inhibition) ([2]; dose 10 sc) [%] |
| --- | --- | --- | --- | --- |
|  | 32 | CN(C)S(=O)(=O)N[C@@H](CCCCN)C(=O)NC[C@H](CC1(C(=O)N[C@@H](Cc2ccc(O)cc2)C(=O)O)CCCC1)C(=O)O [NH2 SO2 (CH3)2 NH] |  |  |
| 8 | 9 | NCCCC[C@H](NC(=O)N1CCOCC1)C(=O)NC[C@H](CC1(C(=O)N[C@@H](Cc2ccc(O)cc2)C(=O)O)CCCC1)C(=O)O [NH2 C(O) drawing 39] |  |  |
| 40 | 2 | CS(=O)(=O)N(CCCNC(=O)OCc1ccccc1)CC(=O)NC[C@H](CC1(C(=O)N[C@@H](Cc2ccc(O)cc2)C(=O)O)CCCC1)C(=O)O [CbzNH SO2 CH3] |  | 100 |
| 1 | 1 | CN(C)S(=O)(=O)N[C@@H](CCCCNC(=O)OCc1ccccc1)C(=O)NC[C@H](CC1(C(=O)N[C@@H](Cc2ccc(O)cc2)C(=O)O)CCCC1)C(=O)O [CbzNH SO2 (CH3)2 NH] |  |  |
